Reference: publication PMC5804415, “Comparison of ^68Ga-DOTA-Siglec-9 and ^18F-Fluorodeoxyribose-Siglec-9: Inflammation Imaging and Radiation Dosimetry” (Contrast Media & Molecular Imaging, 2017)
Positions of bridges follow the written chain, without caps; N, C: chain ends. Residues, ends and D or L forms follow the SMILES beside them. *: point of attachment. X1 = O=C(CON=C[C@H](O)[C@H](O)[C@H](O)CF)*; AEEA = NCCOCCOCC(=O)O

Key:
[1] = tested on: rats with skin/muscle inflammation (turpentine oil); assay type: in vivo, rat
Procedure: Rats were divided into two groups with Group 1 being intravenously (i.v.) given ^68Ga-DOTA-Siglec-9 (16 ± 2.9 MBq, n = 8) and Group 2 ^18F-FDR-Siglec-9 (18 ± 5.1 MBq, n = 8). A 60 min dynamic PET acquisition was performed on a High Resolution Research Tomograph (HRRT; Siemens Medical Solutions, Knoxville, TN, USA). The PET data were reconstructed into 5 × 60 s and 11 × 300 s frames using an ordered-subsets expectation maximization 3D algorithm (OSEM3D). Quantitative PET image analysis was performed by defining regions of interest (ROIs) within the inflamed area (on the left foreleg), control area (on the right foreleg), kidneys, lungs, heart, liver, and urinary bladder using […] 2.8 software (Turku PET Centre). Results were expressed as standardized uptake values (SUV) and time-activity curves. SUV was calculated as a ratio of tissue radioactivity concentration (Bq/mL) and given radioactivity dose (Bq) divided by animal's body weight.

[2] = Ex vivo gamma counting biodistribution in atherosclerotic mice; conditions: mouse, total radioactivity, LDLR^−/−ApoB^100/100 mice (n = 19), 25 min after injection, mean ± SD
Procedure: (§1) Six-month-old atherosclerotic low-density lipoprotein receptor-deficient mice (weight, 27 ± 4.1 g; n = 19) expressing only apolipoprotein B100 (LDLR^−/−ApoB^100/100, strain #003000; Jackson Laboratory, Bar Harbor, ME, USA) were fed for 4 months with a Western-type diet. Two-month-old C57BL/6N mice (weight, 24 ± 2.2 g; n = 13) fed with a regular chow served as controls.
(§2) In PET studies, mice (19 atherosclerotic, 13 controls) were injected with 14 ± 4.4 MBq of ^18F-FDR-Siglec-9. Twenty-five minutes after ^18F-FDR-Siglec-9 injection, blood was drawn by cardiac puncture and the animals were killed. The thoracic aorta was excised and rinsed in saline to remove the blood. In addition, various other tissues were excised and patted dry. Samples of blood and urine were collected, and blood plasma was separated by centrifugation. […] The results were expressed as % ID/g and target-to-background ratio.

[3] = Ex vivo gamma counting biodistribution in control mice; conditions: mouse, total radioactivity, C57BL/6N control mice (n = 13), 25 min after injection, mean ± SD
Procedure: as §1, §2

[4] = tested on: atherosclerotic plaques in LDLR^−/−ApoB^100/100 mouse aorta; assay: Autoradiography of aortic cryosections of atherosclerotic mice; assay type: in vivo; conditions: LDLR^−/−ApoB^100/100 mice, n = 12, mean ± SD
Procedure: Autoradiography was used to study the distribution of radioactivity in the aorta in more detail, as described previously. After careful superimposition of the autoradiographs and H&E stained images, the count densities of 540 ROIs (185: plaques, 241: normal vessel walls, and 114: adventitia) were analyzed using Tina 2.1 software. The autoradiography results were calculated as the photostimulated luminescence per unit area (PSL/mm^2) normalized for injected radioactivity dose, and as ratios between the atherosclerotic plaque, normal vessel wall, and adventitia.

[5] = Ex vivo gamma counting biodistribution in rats with skin/muscle inflammation; conditions: Sprague-Dawley, rat, iv, total radioactivity; for tissue uptake at 1 h: Ex vivo biodistribution, rats with skin/muscle inflammation, i.v., 60 min after injection, gamma counting, mean ± SD
Source text: Twenty-four hours before the PET studies, Sprague-Dawley rats (weight, 350 ± 22 g; n = 16) were subcutaneously injected with turpentine oil (Sigma-Aldrich) to induce focal acute, sterile inflammation [12]. Before the injection, rats were shaved on the both forelegs. Inflamed area on the left foreleg contained both skin and muscle. The intact, contralateral side (right foreleg) was used as a control.
After PET imaging, rats were sacrificed and various tissues were excised and weighed, and their radioactivity levels were measured with a gamma counter (1480 Wizard 3′′, PerkinElmer, Turku, Finland). The ex vivo biodistribution results were expressed as a percentage of the injected radioactivity dose per gram of tissue (% ID/g) and target-to-background ratio.

[6] = tested on: LDLR^−/−ApoB^100/100 atherosclerotic mice; assay: PET/CT imaging of atherosclerotic mice; assay type: in vivo, mouse; conditions: atherosclerotic LDLR^−/−ApoB^100/100 mice, 10–20 min after injection, mean ± SD, n = 2
Procedure: as §1
A subset of mice (two atherosclerotic, two controls) were injected with 4.7 ± 1.1 MBq of ^18F-FDR-Siglec-9 and imaged with an Inveon Multimodality PET/CT (Siemens, Medical Solutions, Knoxville, TN, USA). Dynamic PET images were acquired for 60 min, followed by CT with a contrast agent (eXIATM160XL, Binitio Biomedical Inc., Ottawa, ON, Canada). The PET images were reconstructed with OSEM3D (frames 5 × 60 s, 3 × 300 s, 1 × 600 s, […]).
Quantitative PET image analysis was performed by defining ROIs in the heart left ventricle (blood pool) and aortic arch as identified on the basis of the CT angiography by using the Inveon Research Workplace software (Siemens Medical Solutions, Knoxville, TN, USA). Time frames 10–20 min after injection were used for PET quantification, as previously reported in the same mouse model using ^68Ga-DOTA-Siglec-9 [4]. The results within ROIs were expressed as SUV and target-to-background ratio (SUVmax,aortic arch/SUVmean,blood).

[7] = Sprague-Dawley rats, turpentine oil skin/muscle inflammation, i.v., dynamic PET 10–60 min, mean ± SD, SD
[8] = adipose tissue, WAT, 14 MBq, read-out: Ex vivo biodistribution, Adipose tissue, WAT
[9] = aorta, 14 MBq, read-out: Ex vivo biodistribution, Aorta
[10] = blood, 14 MBq, read-out: Ex vivo biodistribution, Blood
[11] = brain, 14 MBq, read-out: Ex vivo biodistribution, Brain
[12] = heart, 14 MBq, read-out: Ex vivo biodistribution, Heart
[13] = kidney, 14 MBq, read-out: Ex vivo biodistribution, Kidney
[14] = thymus, 14 MBq, read-out: Ex vivo biodistribution, Thymus

## CC(C)C[C@@H]1NC(=O)CNC(=O)[C@H](CCCNC(=N)N)NC(=O)[C@H](Cc2c[nH]c3ccccc23)NC(=O)[C@H](CO)NC(=O)[C@H](CC(C)C)NC(=O)[C@H](CO)NC(=O)[C@H](CC(C)C)NC(=O)[C@H](CCCNC(=N)N)NC(=O)[C@H](C)NC(=O)[C@@H](NC(=O)COCCOCCNC(=O)CON=C[C@H](O)[C@H](O)[C@H](O)CF)CSSC[C@@H](C(=O)N2CCC[C@H]2C(=O)N[C@@H](CO)C(=O)N[C@@H](CCCCN)C(=O)O)NC(=O)[C@H](CC(C)C)NC(=O)[C@H]([C@@H](C)O)NC1=O [^18F-FDR-Siglec-9] ({X1-AEEA}-CARLSLSWRGLTLCPSK-OH; disulfide 1-14; N-terminus and C-terminus assumed)
[1]; Sprague-Dawley rats, turpentine oil skin/muscle inflammation, i.v., dynamic PET 10–60 min, mean ± SD, n = 5 (68Ga) or 8 (18F), SD
  SUVmean,10–60 min in the inflamed area: 0.77 ± 0.22
[1]; [7]
  SUVmax,10–60 min in the inflamed area: 1.1 ± 0.097
  inflammation-to-blood ratio 10–60 min (PET): 1.7 ± 0.51
[1]; rat, in vivo, iv
  time of peak uptake in the inflamed area after the i.v. bolus injection: about 10 min
[2]; LDLR^−/−ApoB^100/100 (strain #003000), liver, read-out: Ex vivo biodistribution, Liver
  tissue uptake at 25 min: 3 ± 0.97 %ID/g
[2]; LDLR^−/−ApoB^100/100 (strain #003000), lungs, read-out: Ex vivo biodistribution, Lungs
  tissue uptake at 25 min: 2.4 ± 1.1 %ID/g
[2]; LDLR^−/−ApoB^100/100 (strain #003000), muscle, read-out: Ex vivo biodistribution, Muscle
  tissue uptake at 25 min: 0.62 ± 0.2 %ID/g
[2]; LDLR^−/−ApoB^100/100 (strain #003000), pancreas, read-out: Ex vivo biodistribution, Pancreas
  tissue uptake at 25 min: 0.82 ± 0.28 %ID/g
[2]; LDLR^−/−ApoB^100/100 (strain #003000), plasma, read-out: Ex vivo biodistribution, Plasma
  tissue uptake at 25 min: 5.7 ± 1.4 %ID/g
[2]; LDLR^−/−ApoB^100/100 (strain #003000), small intestine, read-out: Ex vivo biodistribution, Small intestine
  tissue uptake at 25 min: 1.6 ± 0.49 %ID/g
[2]; LDLR^−/−ApoB^100/100 (strain #003000), spleen, read-out: Ex vivo biodistribution, Spleen
  tissue uptake at 25 min: 1.1 ± 0.28 %ID/g
[2]; [8]
  tissue uptake at 25 min: 0.72 ± 0.66 %ID/g
[2]; [9]
  tissue uptake at 25 min: 0.93 ± 0.38 %ID/g
[2]; [10]
  tissue uptake at 25 min: 3.2 ± 0.82 %ID/g
[2]; [11]
  tissue uptake at 25 min: 0.15 ± 0.06 %ID/g
[2]; [12]
  tissue uptake at 25 min: 0.62 ± 0.28 %ID/g
[2]; [13]
  tissue uptake at 25 min: 44 ± 26 %ID/g
[2]; [14]
  tissue uptake at 25 min: 0.69 ± 0.19 %ID/g
[2]; urine, 14 MBq
  excreta dose per gram or mL at 25 min: 470 ± 370 %ID/g
[3]; adipose tissue, BAT, 14 MBq, read-out: Ex vivo biodistribution, Adipose tissue, BAT
  tissue uptake at 25 min: 0.45 ± 0.13 %ID/g
[3]; [8]
  tissue uptake at 25 min: 0.63 ± 0.37 %ID/g
[3]; [9]
  tissue uptake at 25 min: 0.52 ± 0.23 %ID/g
[3]; [10]
  tissue uptake at 25 min: 2.1 ± 0.59 %ID/g
[3]; [11]
  tissue uptake at 25 min: 0.11 ± 0.048 %ID/g
[3]; [12]
  tissue uptake at 25 min: 0.34 ± 0.082 %ID/g
[3]; [13]
  tissue uptake at 25 min: 43 ± 25 %ID/g
[3]; liver, read-out: Ex vivo biodistribution, Liver
  tissue uptake at 25 min: 3.5 ± 2.3 %ID/g
[3]; lungs, read-out: Ex vivo biodistribution, Lungs
  tissue uptake at 25 min: 1.5 ± 0.45 %ID/g
[3]; muscle, read-out: Ex vivo biodistribution, Muscle
  tissue uptake at 25 min: 0.43 ± 0.13 %ID/g
[3]; pancreas, read-out: Ex vivo biodistribution, Pancreas
  tissue uptake at 25 min: 0.57 ± 0.18 %ID/g
[3]; plasma, read-out: Ex vivo biodistribution, Plasma
  tissue uptake at 25 min: 3.8 ± 0.62 %ID/g
[3]; small intestine, read-out: Ex vivo biodistribution, Small intestine
  tissue uptake at 25 min: 0.79 ± 0.29 %ID/g
[3]; spleen, read-out: Ex vivo biodistribution, Spleen
  tissue uptake at 25 min: 0.62 ± 0.32 %ID/g
[3]; [14]
  tissue uptake at 25 min: 0.43 ± 0.089 %ID/g
[3]; urine, 14 MBq
  excreta dose per gram or mL at 25 min: 610 ± 340 %ID/g
[4]
  plaque-to-adventitia ratio: 2.2 ± 0.53
  plaque-to-healthy vessel wall ratio: 1.9 ± 0.23
[5]; adipose tissue, BAT, Adipose tissue, BAT
  tissue uptake at 1 h: 0.049 ± 0.019 %ID/g
[5]; adipose tissue, WAT, Adipose tissue, WAT
  tissue uptake at 1 h: 0.017 ± 0.0041 %ID/g
[5]; blood, Blood
  tissue uptake at 1 h: 0.12 ± 0.023 %ID/g
[5]; bone (femoral), Bone (femoral)
  tissue uptake at 1 h: 0.017 ± 0.01 %ID/g
[5]; bone marrow, Bone marrow
  tissue uptake at 1 h: 0.056 ± 0.011 %ID/g
[5]; brain, Brain
  tissue uptake at 1 h: 0.01 ± 0.003 %ID/g
[5]; control area (intact right foreleg), Control area
  tissue uptake at 1 h: 0.11 ± 0.056 %ID/g
[5]; heart, Heart
  tissue uptake at 1 h: 0.048 ± 0.01 %ID/g
[5]; inflamed area (left foreleg, skin and muscle), Inflamed area
  tissue uptake at 1 h: 0.19 ± 0.053 %ID/g
[5]; kidneys, Kidneys
  tissue uptake at 1 h: 14 ± 9.9 %ID/g
[5]; liver, Liver
  tissue uptake at 1 h: 0.68 ± 0.12 %ID/g
[5]; lungs, Lungs
  tissue uptake at 1 h: 0.11 ± 0.028 %ID/g
[5]; muscle, Muscle
  tissue uptake at 1 h: 0.021 ± 0.0067 %ID/g
[5]; pancreas, Pancreas
  tissue uptake at 1 h: 0.048 ± 0.011 %ID/g
[5]; plasma, Plasma
  tissue uptake at 1 h: 0.23 ± 0.087 %ID/g
[5]; small intestine, Small intestine
  tissue uptake at 1 h: 0.091 ± 0.029 %ID/g
[5]; spleen, Spleen
  tissue uptake at 1 h: 0.06 ± 0.012 %ID/g
[5]; urine, SD
  excreta dose per gram or mL at 1 h: 23 ± 14 %ID/g
[5]; male, testis, Testis
  tissue uptake at 1 h: 0.046 ± 0.022 %ID/g
[6]
  target-to-background ratio (SUVmax,aortic arch/SUVmean,blood): 1.6 ± 0.078
